In patent US20260224577A1, “METHODS OF TREATING HEART FAILURE WITH VIBEGRON” (SUMITOMO PHARMA CO., LTD., priority 2021, published 2026):

How the values were obtained:
β1-adrenergic receptor = molecular target: T1, β1-adrenergic receptor (Homo sapiens, UniProt P08588); assay: Functional cellular cAMP (HTRF) assay, CHO cells expressing β1-ARs; assay type: cell-based; conditions: relative to isoproterenol
T1 construct: expressed in transfected cells; host or cells: CHO
Procedure: The potency and maximal effect of vibegron and mirabegron for β3-adrenergic receptors and the selectivity for each […] receptor were determined. Functional cellular assays for vibegron and mirabegron activity were performed using Chinese hamster ovary (CHO) cells expressing β1- or β2-ARs and human embryonic kidney (HEK) 293 cells expressing β3-ARs. Cells were incubated with vibegron, mirabegron, or the appropriate control (isoproterenol for β1 and β3, procaterol for β2). Responses were quantified using homogeneous time-resolved fluorescence of cyclic adenosine monophosphate. Half-maximal effective concentration (EC50) and maximum response (Emax) values were determined by nonlinear least-squares regression analysis.

[1] = tested on: mice with induced myocardial infarction; assay: Post-MI chronic heart failure in mice, invasive hemodynamics with isoproterenol; assay type: in vivo, mouse; conditions: 4 weeks of treatment
Text: (§1) Myocardial infarction was induced in 10-12 week C57B/6 wild-type mice and after 2 weeks echo cardiograms were used to assess the MI severity in each mouse. Mice were randomized for treatment based on similarity and severity of the induced infarct. The mice were started with either vibegron or vehicle (1-3 doses) administered by continuous infusion using 2 week minipumps (Azlet Corp.) that were filled with the appropriate dose and implanted subcutaneously on the back of each animal in the region of the scapula. The minipumps were replaced with new minipumps in the same location at the 2 week time point and dosed for 4 weeks in total. Cardiac function was assessed by echocardiography (Echo) at 0, 2, 4, and 6 weeks. Some mice were subjected to terminal catheterization to measure hemodynamic pressures and adrenergic responsiveness. At the end of the 4 week treatment period (i.e., 6 weeks after MI was induced), cardiac function was measured, mice were sacrificed for histology of the heart, and terminal blood was collected to confirm the serum concentration of vibegron.
(§2) • 1. Day 0 (after 1-2 weeks acclimation)—pre-surgery Echo • 2. Perform LAD Ligation (MI) or Sham procedure • 3. Day 14—Echo and randomly assign groups • 4. Day 14—begin administration of vehicle and drug for 4 weeks • 5. Day 28—Echo (operator blinded to groups)—change pumps for another 2 week dosing • 6. Day 42—Echo (operator blinded to groups) • 7. Day 42—Some were used for hemodynamics and ISO dose response and all animals sacrificed. Some were used for histology and some for RNA/Protein analysis. Blood was also collected at the time of sacrifice to determine serum concentrations.
Invasive Measurements: The hemodynamic measurements occurred at the end of the study as described in the protocols above. […] Hemodynamic measurements were collected and analyzed for cardiac function.
The maximum (dp/dt max) rate of pressure change during contraction and minimum (dp/dt min) rate of pressure change during relaxation of the left ventricle were measured with increasing doses of isoproterenol in combination with vibegron. […]

[2] = tested on: mice with induced myocardial infarction; assay: Post-MI chronic heart failure in mice, heart histology (Mason's trichrome); assay type: in vivo, mouse; conditions: for Average % Infarcted Myocardium / Average Left Ventricle Lumen Area: Week 6
Text: as §1, §2
At the end of the study period, blood samples were processed for subsequent analysis of compound and decided biomarkers. At the end of the study, the heart was either preserved in formalin (for section, and staining) or snap frozen (for isolation of whole heart RNA, DNA and protein) as described above.
Histologies were obtained by sectioning the mouse hearts vertically in such a way that all four chambers were visible upon staining. The area of the left ventricle cavity was measured by staining with Mason's trichrome stain. The darker color indicates healthy myocardium and the lighter color indicates connective tissue, which is the largest component of infarcted myocardium.

[3] = tested on: β3-AR over β2-AR and β1-AR; conditions: cell based in vitro assays; cited from earlier work

T1 sequence (P08588 whole entry): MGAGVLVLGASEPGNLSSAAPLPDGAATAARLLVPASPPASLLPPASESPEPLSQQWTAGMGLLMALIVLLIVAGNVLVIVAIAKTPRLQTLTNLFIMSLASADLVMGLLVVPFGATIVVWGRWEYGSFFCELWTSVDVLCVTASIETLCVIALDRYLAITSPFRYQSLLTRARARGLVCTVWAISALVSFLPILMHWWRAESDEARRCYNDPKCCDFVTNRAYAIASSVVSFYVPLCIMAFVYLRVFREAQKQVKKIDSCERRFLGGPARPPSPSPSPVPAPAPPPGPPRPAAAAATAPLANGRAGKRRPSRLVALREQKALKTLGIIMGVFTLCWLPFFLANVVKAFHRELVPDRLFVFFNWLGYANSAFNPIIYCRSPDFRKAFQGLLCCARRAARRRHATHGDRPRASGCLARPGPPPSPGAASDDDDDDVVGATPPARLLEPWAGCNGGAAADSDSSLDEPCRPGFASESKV

In the case of `O=C(Nc1ccc(C[C@@H]2CC[C@H]([C@H](O)c3ccccc3)N2)cc1)[C@@H]1CCc2nccc(=O)n21` [Vibegron, (6S)—N-[4-[[(2S,5R)-5-[(R)-hydroxy(phenyl)methyl]pyrrolidin-2-yl]methyl]phenyl]-4-oxo-7,8-dihydro-6H-pyrrolo[1,2-a]pyrimidine-6-carboxamide], the “β1-adrenergic activity (% Activity)” value (β1-adrenergic receptor) is reported as 0%, the “Maximum rate of pressure change (dp/dt max) during left ventricle contraction” value ([1]; increasing doses of isoproterenol, FIG. 4A) is reported as “increased” and the “Minimum rate of pressure change (dp/dt min) during left ventricle relaxation” value ([1]; increasing doses of isoproterenol, FIG. 4B) is reported as “decreased”. For the same compound, the “Change in heart rate with increasing doses of isoproterenol” value ([1]; versus mice not receiving vibegron, FIG. 4C) was “higher increase in heart rate”, the “Amount of healthy myocardium after infarction (trichrome stain)” value ([2]; MI mice, 4 weeks of treatment, versus vehicle, FIGS. 5A-5F) was “increases the amount of healthy myocardium after infarction” and the “Average % Infarcted Myocardium” value ([2]; MI mice, high dose (10 mg/kg)) was 7.68%. For the same compound, the “Average Left Ventricle Lumen Area” value ([2]; MI mice, high dose (10 mg/kg)) was 75,061 AU, the “Average % Infarcted Myocardium” value ([2]; MI mice, low dose (1 mg/kg)) was 21.79% and the “Average Left Ventricle Lumen Area” value ([2]; MI mice, low dose (1 mg/kg)) was 170,789 AU. For the same compound, the “Average % Infarcted Myocardium” value ([2]; MI mice, medium dose (3 mg/kg)) was 18.85%, the “Average Left Ventricle Lumen Area” value ([2]; MI mice, medium dose (3 mg/kg)) was 72,474 AU and the “Adverse effects in healthy hearts (LV lumen area, infarcted myocardium)” value ([2]; sham mice, high dose) was “no adverse effects”. The “Average Left Ventricle Lumen Area” value ([2]; sham mice, high dose (10 mg/kg)) was 46,167 AU and the “Selectivity for activation of β3-AR over β2-AR and β1-AR” value [3] was > 9,000 fold.
